In patent publication US11406687B2, “Activators of CXCR3 for the treatment of angiopathies of the eye” (University of Pittsburgh—Of the Commonwealth System of …, priority 2011, dated 2022):

B1: PF4: 70-amino acid CXC chemokine released from alpha-granules of activated platelets; human PF4 sequence SEQ ID NO: 3 (protein, listed as Homo sapiens)
chain: EAEEDGDLQCLCVKTTSQVRPRHITSLEVIKAGPHCPTAQLIATLKNGRKICLDLQAPLYKKIIKKLLES

Tests used:
[1] = test system: rabbits with experimental WMD; test: Wet macular degeneration in rabbits with experimental WMD (Example 2); format: in vivo, rabbit; settings: injection into the vitreous humor, repeated as necessary
Protocol: To test the effect of the 21 amino acid IP-10 peptide (SEQ ID NO: 2) on wet macular degeneration (WMD), an experiment is conducted in rabbits with experimental WMD.
Rabbits are treated with IP-10 peptide (SEQ ID NO: 2), PF4, or a scrambled control peptide by injection into the vitreous humor. Rabbits are evaluated visually over time to evaluate the effect of each peptide. Injections are repeated as necessary.

[2] = test system: rabbits with experimental glaucoma; test: Restenosis following glaucoma treatment in rabbits with experimental glaucoma (Example 1); format: in vivo, rabbit; settings: rabbits treated for glaucoma by drilling an anastomy; peptides injected into the aqueous humor
Protocol: To test the effect of the 21 amino acid IP-10 peptide (SEQ ID NO: 2) on restenosis following glaucoma treatment, an experiment is conducted in rabbits with experimental glaucoma.
Rabbits are treated with IP-10 peptide (SEQ ID NO: 2), PF4, or a scrambled control peptide. Rabbits are treated for glaucoma by drilling an anastomy. The peptides are then injected into the aqueous humor.
Changes in pressure are evaluated before and after treatment with the peptides.

Molecule	Effect on WMD, evaluated visually over time [1]	Changes in pressure before and after treatment with the peptides [2]
IP-10 peptide: 21 amino acid fragment of human IP-10, ESKAIKNLLKAVSKERSKRSP (listed as Homo sapiens)	inhibit the development of WMD and/or lead to a reversion of WMD	prevent an increase in pressure
B1	inhibit the development of WMD and/or lead to a reversion of WMD	prevent an increase in pressure
